Measurements as given in patent US6321750A, “Condom lubricants with zinc salts as anti-viral additives” (priority 1999, dated 2001).
Entries after “also recorded” stand apart in the source; their conditions may differ. Read-outs that look alike come from different tables or passages of the source.

Experiments:
[1] = tested on: genitals (both persons, during intercourse); experiment: Irritation test of lubricant during intercourse / human volunteers; assay type: in vivo
Text: Subsequently, the gel formulation was applied topically and used as a sexual lubricant during intercourse. Both people wiped off the excess with a tissue after intercourse, but neither person showered or washed off the lubricant until the following day. It caused no irritation to either person.

forearm = experiment: Irritation test on forearm / skin; assay type: in vivo, human
Protocol: Zinc acetate was purchased from Pfaltz and Bauer (Waterbury, Connecticut). About 0.5 grams were mixed with several drops of distilled water at room temperature. […] The aqueous mixture was rubbed into an area about 3 cm in diameter on the forearm of […] and caused no irritation. Subsequently, about 0.5 grams of the salt were dissolved in a few drops of distilled water, then 10 ml K-Y Lubricating Jelly (sold by Johnson and Johnson, New Brunswick, N.J.) was added to form a gel mixture containing about 5% zinc acetate (w/v). This commercially available mixture contains purified water, hydroxyethyl-cellulose as a thickening agent, glycerin as a lubricant, glucono-delta-lactate to prevent crystallization, chlorhexidine gluconate as a preservative, and sodium hydroxide to reduce the acidity.

HIV = HIV infectivity tests with zinc acetate 1.5% (diluted and undiluted viral stocks, p24 ELISA); assay type: cell-based, HIV-1
Text: The tests described above, in Example 8, used an undiluted high-titer viral stock, which contained at least ten million infectious viral particles per ml. That concentration can be achieved in a laboratory only by special culturing, purification, and concentration techniques, and it is vastly higher than would actually occur in the ejaculate of an HIV-infected person (especially someone who is not in the end stages of the disease, and who might pose a significant risk of transmitting the virus to an unknowing sexual partner).
These tests used serial dilutions of the viral stocks, at ranges from 1:10 to 1:10,000. To create the 1:10 dilution, 500 μl of viral stock was mixed with 4.5 ml of RPMI medium. Subsequent dilutions added 9 ml of RPMI medium to 1 ml from the preceding dilution.
(§1) A 2 ml aliquot from each dilution was mixed with an equal volume of 3% ZnAc dissolved in sterile distilled water; after mixing, the zinc concentration was 5.3 mg/ml Zn. These mixtures were incubated for 2 hours, then diluted with culture medium at 1:30, 1:100, and 1:1000 to reduce the toxicity of the zinc to lymphocytes. Four ml of lymphocytes were mixed with 4 ml of each zinc/virus mixture. The zinc/virus/cell mixtures were incubated at 37° C. for 3 hours; zinc concentrations were 88, 27, and 2.7 μg/ml in the 30, 100, and 1000 dilutions.
Following the 3 hour incubation, the cells were washed twice in RPMI medium and resuspended in fresh medium containing 10% FCS. Each solution was inoculated (2 ml; estimated minimum 2×10^5 cells per well) into each of three wells in a 12-well plate and cultured for 27 days, with periodic sampling and measuring of p24 antigens.
Positive controls used 1:1000 dilutions of viral stock mixed with zinc-free RPMI. These controls were consistently highly infectious, even though their concentrations were 100× lower than the 1:10 mixtures in which infectivity was eliminated by zinc treatment. Other positive controls were tested at up to 100,000× dilutions; these were highly infective in two out of the three plates tested.
While carrying out the viral dilution tests, tests were also performed using 2 ml of 3% ZnAc solution in distilled water mixed with 2 ml aliquots of undiluted viral stock. The zinc/virus mixtures were incubated for 2 hours, diluted with RPMI at 1:100 and 1:1000 ratios, and mixed with lymphocytes for three hours; zinc concentrations were 27 and 2.7 μg/ml. The cells were washed twice, inoculated into 12 well plates as described above, and cultured for 27 days.

HIV-1 = experiment: High-titer HIV infectivity test (two-step incubation, p24 ELISA); assay type: cell-based; conditions: for HIV infectivity: high-titer stock
Protocol: The initial set of HIV tests were carried out at Biotech Research Laboratories (Rockville, Md.). The HIV-1 viral isolate and H-9 cell line were originally supplied by Robert Gallo of the NCI.
(§2) In a first set of tests, 20 mg of zinc acetate powder (ZnAc, MW 183.4) was mixed in 1 ml RPMI cell culture medium (Whittaker Corp.). This 2% (w/v) salt mixture contained 7 mg/ml elemental Zn. […] Therefore, a small quantity of HCl was added until the mixture became clear; the pH was about 5.5. The Zn concentration was reduced by half (and the pH was raised somewhat) when an equal volume (1 ml) of cell-free high-titer HIV-1 viral stock was added. The zinc/virus mixture was stirred and incubated for 2 hours at 37° C. (i.e., normal body temperature).
(§3) Following this first incubation step, the zinc/virus mixtures were diluted at 1:10, 1:30, and 1:100 ratios using culture medium, and aliquots were added to equal volumes of culture media containing H-9 lymphocytes that had been pretreated overnight with 2 μg/ml Polybreen. The lymphocyte mixtures were incubated for three hours at 37° C.; zinc concentrations during this step were 180, 60, and 18 μg/ml for the 1:10, 1:30, and 1:100 dilutions.
The cell aliquots were then washed twice, using culture medium, to remove free p24 proteins that are present in the initial viral stock. Such proteins will skew ELISA readings if not removed by washing. Cells were then resuspended in fresh medium containing 10% fetal calf serum (FCS) and cultured for 20 days. During this period, each tube was periodically sampled by hand-mixing the tube, withdrawing 100 μl of liquid from the top, and testing the sample for p24 antigens using ELISA assays.
A positive control was used at each dilution. Viral aliquots not treated with zinc were identically diluted, mixed with lymphocytes, cultured, and tested. Negative controls were also run, in which H-9 cells were plated and grown in the absence of any virus or zinc; these provided background levels that vary slightly from day to day, depending on factors such as spectrophotometer calibrations and rinsing conditions.

vagina = experiment: Irritation test in shallow region of the vagina (volunteer); assay type: in vivo, human
Text: In all examples, the test subjects were a monogamous married couple, free of genital herpes and all other known sexually transmitted viruses.

[2] = water; cited from earlier work
several cell lines = experiment: Zinc toxicity in several cell lines; conditions: read-out: concentration at which toxicity began to appear in mild form, all comparable
H-9 lymphocytes = experiment: Toxicity to lymphocytes; assay type: cell-based
Protocol: as §2, §3, §1

## Zinc acetate
[1]; gel in K-Y Lubricating Jelly, about 5% w/v
  irritation during intercourse: no irritation; also recorded: Neither of these salts caused any irritation
[1]; in gel or genital lubricant, human volunteers
  irritation of gel / genital lubricant formulations: did not cause any irritation
forearm; about 0.5 g in several drops of distilled water
  irritation, forearm: no irritation
forearm; dissolved in water alone
  burning and irritation to the skin: substantial amount of burning and irritation to the skin
HIV; 10×, 100×, 1000× diluted stocks, zinc/virus diluted 1:1000 (2.7 μg/ml Zn)
  HIV infectivity: completely blocked infectivity
HIV; diluted stocks, zinc/virus diluted 1:100 (27 μg/ml Zn)
  HIV infectivity: viral infectivity was completely blocked
HIV; diluted viral stocks, 1.5% zinc acetate 2 h
  HIV infectivity: completely eliminated
HIV; diluted viral stocks, 1.5% zinc acetate 2 h, listed as ZnAc
  HIV infectivity: completely eliminated the infectivity
HIV; high-titer stocks, various concentrations of zinc acetate
  HIV infectivity (FIG. 4): either eliminated or suppressed
HIV; undiluted stock, zinc/virus diluted 1:100 (27 μg/ml Zn), 27 days
  HIV infectivity: completely prevented infectivity
HIV; undiluted stock, zinc/virus diluted 1:1000 (2.7 μg/ml Zn), 27 days
  HIV infectivity: delayed the onset of infection
HIV-1; 1% zinc acetate 2 h, diluted 1:30 (60 μg/ml Zn), 20 days culture
  p24 concentrations: indistinguishable from background levels
HIV-1; 1% zinc acetate 2 h, diluted 1:30 (60 μg/ml Zn)
  HIV infectivity: completely eliminated
HIV-1; 1% zinc acetate 2 h, diluted 1:30 (60 μg/ml Zn), listed as ZnAc
  HIV infectivity: completely abolished viral infectivity
HIV-1; 1% zinc acetate 2 h, diluted 1:100 (18 μg/ml Zn)
  HIV infectivity: reduced and delayed
HIV-1; 1% zinc acetate 2 h, diluted 1:100 (18 μg/ml Zn), listed as ZnAc
  HIV infectivity: suppressed and retarded HIV infectivity
HIV-1; two-step incubation assay, FIGS. 1-4
  inhibition of HIV particles (summary of Examples 8-10): inhibited or entirely inactivated the HIV particles
vagina; dissolved in (distilled) water alone
  irritation, vagina: unpleasant tingling or mild burning sensation; also recorded: vaginal irritation
vagina; gel in K-Y Lubricating Jelly, about 5% w/v, passive test
  irritation, vagina / female genitals: no tingling, burning, or other unpleasant sensation
20 mg in 1 ml RPMI culture medium containing protein
  solubility in cell culture medium / water: generated a precipitate in the culture medium
General statement
  solubility in water: highly soluble in water
Salt in a few drops of distilled water, room temperature
  solubility in water: dissolved completely
[2]
  Molar solubility: 1.64
  Solubility: 300
Several cell lines
  MCC: ~100 mM
H-9 lymphocytes; 88 μg/ml Zn, 3 h
  cell mortality: significant cell mortality
H-9 lymphocytes; 1:10 dilution, 180 μg/ml Zn, 3 h
  lymphocyte mortality: substantial mortality to the lymphocytes
H-9 lymphocytes; 1:30 dilution, 60 μg/ml Zn, visual observation
  lymphocyte growth: retarded cell growth during the first few days
H-9 lymphocytes; lower levels (27 and 2.7 μg/ml Zn), 3 h
  cell mortality: no cell mortality
